Columns and labels:
AMBEL [1] = assay: greenhouse experiment, pre-emergence, mixtures (Example 2, Colby); format: in vivo, Ambrosia artemisiifolia
Description: (§1) The culture containers used were plastic pots containing loamy sand with approximately 3.0% of humus as substrate. The seeds of the test plants were sown separately for each species.
(§2) For the pre-emergence treatment, the active compounds, suspended or emulsified in water, were applied directly after sowing by means of finely distributing nozzles. The containers were irrigated gently to promote germination and growth and subsequently covered with transparent plastic hoods until the plants had rooted. This cover caused uniform germination of the test plants unless this was adversely affected by the active compounds.
(§3) Depending on the species, the plants were kept at 10-25° C. and 20-35° C., respectively. The test period extended over 2 to 4 weeks. During this time, the plants were tended and their response to the individual treatments was evaluated.
(§4) Evaluation was carried out using a scale from 0 to 100. 100 means no emergence of the plants, or complete destruction of at least the above-ground parts, and 0 means no damage or normal course of growth. Good herbicidal activity is given at values of at least 70, and very good herbicidal activity is given at values of at least 85.
(§5) The respective stated components A and B, and if appropriate, C were formulated as a 10% by weight strength emulsion concentrate and, with addition of the amount of solvent system, introduced into the spray liquor used for applying the active compound. In the examples, the solvent used was water.
(§6) The test period extended over 20 and 21 days, respectively. During this time, the plants were tended, and their reaction to the treatment with active compound was monitored.
(§7) In the examples below, using the method of S. R. Colby (1967) “Calculating synergistic and antagonistic responses of herbicide combinations”, Weeds 15, p. 22ff., the value E, which is expected if the activity of the individual active compounds is only additive, was calculated. E=X+Y−(X·Y/100) • where • X=percent activity using active compound A at an application rate a; • Y=percent activity using active compound B at an application rate b; • E=expected activity (in %) by A+B at application rates a+b.
(§8) If the value found experimentally is higher than the value E calculated according to Colby, a synergistic effect is present.

BRAPL [2] = assay: as above; format: in vivo, Brachiaria plantaginea
Description: as §1, §2
(§9) Depending on the species, the plants were kept at 10-25° C. and 20-35° C., respectively. […] During this time, the plants were tended and their response to the individual treatments was evaluated. […]
as §6
(§10) In the examples below, using the method of S. R. Colby (1967) “Calculating synergistic and antagonistic responses of herbicide combinations”, Weeds 15, p. 22ff., the value E, which is expected if the activity of the individual active compounds is only additive, was calculated. […]
as §8

ERBVI [3] = assay: as above; format: in vivo, Eriochloa villosa
Description: as §1, §2, §9, §6, §10, §8

ECHCG [4] = assay: as above; format: in vivo, Echinocloa crus-galli
Description: as §1, §2, §9, §6, §10, §8

SETVI = assay: as above; format: in vivo, Setaria viridis
Description: as §1, §2, §9, §6, §10, §8

CHEAL = assay: as above; format: in vivo, Chenopodium album
Description: as §1, §2, §3, §4, §5, §6, §7, §8

AMARE = assay: as above; format: in vivo, Amaranthus retroflexus
Description: as §1, §2, §3, §4, §5, §6, §10, §8

BRAPL [5] = assay: greenhouse experiment, post-emergence treatment (Use Examples); format: in vivo, Brachiaria plantaginea; conditions: post-emergence method; application rate 0.025 kg/ha; scale 0 to 100
Description: (§11) The culture containers used were plastic flowerpots containing loamy sand with approximately 3.0% of humus as the substrate. The seeds of the test plants were sown separately for each species.
(§12) For the post-emergence treatment, the test plants were first grown to a height of 3 to 15 cm, depending on the plant habit, and only then treated with the active ingredients which had been suspended or emulsified in water. For this purpose, the test plants were either sown directly and grown in the same containers, or they were first grown separately as seedlings and transplanted into the test containers a few days prior to treatment.
(§13) Depending on the species, the plants were kept at 10-25° C. or 20-35° C. The test period extended over 2 to 4 weeks. During this time, the plants were tended, and their response to the individual treatments was evaluated.
(§14) Evaluation was carried out using a scale from 0 to 100. 100 means no emergence of the plants, or complete destruction of at least the aerial moieties, and 0 means no damage, or normal course of growth. A good herbicidal activity is given at values of at least 70 and a very good herbicidal activity is given at values of at least 85.

SETFA [6] = assay: as above; format: in vivo, Setaria faberi; conditions: post-emergence method; application rate 0.025 kg/ha; scale 0 to 100
Description: as §11, §12, §13, §14

AMBEL [7] = assay: greenhouse experiment, pre-emergence treatment (Use Examples); format: in vivo, Ambrosia elatior; conditions: pre-emergence method; application rate 0.050 kg/ha; scale 0 to 100
Description: as §11
as §2, with “active ingredients, which had been” for “active compounds,”, “test plants,” for “test plants”, “this has been impaired” for “this was adversely affected”, “active ingredients.” for “active compounds.”
as §13, §14

BIDPI = assay: greenhouse experiment, pre-emergence, mixtures (Example 2, Colby); format: in vivo, Bidens pilosa
Description: as §1, §2, §9, §6, §10, §8

ELEIN = assay: as above; format: in vivo, Eleusine indica
Description: as §1, §2, §9, §6, §10, §8

SORHA = assay: as above; format: in vivo, Sorghum halepense
Description: as §1, §2, §9, §6, §10, §8

BRAPL [8] = assay: greenhouse experiment, post-emergence, mixtures (Example 2, Colby); format: in vivo, Brachiaria plantaginea
Protocol: as §1
(§15) For the post-emergence treatment, the test plants were grown to a plant height of from 3 to 15 cm, depending on the plant habit, and only then treated with the active compounds which had been suspended or emulsified in water. To this end, the test plants were either sown directly and grown in the same containers, or they were first grown separately as seedlings and transplanted into the test containers a few days prior to treatment.
as §3, §4, §5, §6, §10, §8

SETFA [9] = assay: as above; format: in vivo, Setaria faberi
Protocol: as §1, §15, §9, §6, §10, §8

ERBVI [10] = assay: as above; format: in vivo, Eriochloa villosa
Protocol: as §1, §15, §9, §6, §10, §8

SORPHA = assay: as above; format: in vivo, Sorghum halepense
Protocol: as §1, §15, §9, §6, §10, §8

ALOMY [11] = assay: as above; format: in vivo, Alopercurus myosuroides
Protocol: as §1, §15, §9, §6, §10, §8

ECHCG [12] = assay: as above; format: in vivo, Echinocloa crus-galli
Protocol: as §1, §15, §9, §6, §10, §8

ALOMY [13] = assay: greenhouse experiment, pre-emergence, mixtures (Example 2, Colby); format: in vivo, Alopercurus myosuroides
Description: as §1, §2, §9, §6, §10, §8

POLCO = assay: as above; format: in vivo, Polygonum convolvulus
Description: as §1, §2, §9, §6, §10, §8

Cn1nc(C(F)(F)F)c(CS(=O)(=O)C2=NOC(C)(C)C2)c1OC(F)F [B.116, pyroxasulfone, reference compound]
herbicidal activity against AMBEL found (AMBEL [1]; B.116 6.25 g/ha a.s.): 0%
herbicidal activity against BRAPL found (BRAPL [2]; B.116 6.25 g/ha a.s.): 30%
herbicidal activity against ERBVI found (ERBVI [3]; B.116 6.25 g/ha a.s.): 45%

COC[C@H](C)N(C(=O)CCl)c1c(C)csc1C [B.106, dimethenamid-p, reference compound]
herbicidal activity against ECHCG found (ECHCG [4]; B.106 15 g/ha a.s.): 85%
herbicidal activity against SETVI found (SETVI; B.106 15 g/ha a.s.): 70%
herbicidal activity against CHEAL found (CHEAL; B.106 15 g/ha a.s.): 10%
herbicidal activity against AMARE found (AMARE; B.106 15 g/ha a.s.): 75%

C#CCN1C(=O)C(F)(F)Oc2cc(F)c(-n3c(=O)n(C)c(=S)n(C)c3=O)cc21 [I.a.35, 1,5-dimethyl-6-thioxo-3-(2,2,7-trifluoro-3-oxo-4-(prop-2-ynyl)-3,4-dihydro-2H-benzo [b][1,4]oxazin-6-yl)-1,3,5-triazinane-2,4-dione]
herbicidal activity against BRAPL (BRAPL [5]): very good (a very good herbicidal activity is given at values of at least 85)
herbicidal activity against SETFA (SETFA [6]): very good (a very good herbicidal activity is given at values of at least 85)
herbicidal activity against AMBEL (AMBEL [7]): very good (a very good herbicidal activity is given at values of at least 85)
herbicidal activity against AMBEL found (AMBEL [1]; I.a.35 12.5 g/ha a.s.): 60%
herbicidal activity against AMBEL found (AMBEL [1]; I.a.35 25 g/ha a.s.): 75%
herbicidal activity against BIDPI found (BIDPI; I.a.35 12.5 g/ha a.s.): 30%
herbicidal activity against ELEIN found (ELEIN; I.a.35 12.5 g/ha a.s.): 45%
herbicidal activity against SORHA found (SORHA; I.a.35 12.5 g/ha a.s.): 60%
herbicidal activity against BRAPL found (BRAPL [8]; I.a.35 12.5 g/ha a.s.): 65%
herbicidal activity against SETFA found (SETFA [9]; I.a.35 12.5 g/ha a.s.): 75%
herbicidal activity against ERBVI found (ERBVI [10]; I.a.35 12.5 g/ha a.s.): 70%
herbicidal activity against SORPHA found (SORPHA; I.a.35 12.5 g/ha a.s.): 80%
herbicidal activity against ALOMY found (ALOMY [11]; I.a.35 12.5 g/ha a.s.): 30%
herbicidal activity against ECHCG found (ECHCG [12]; I.a.35 12.5 g/ha a.s.): 75%
herbicidal activity against ALOMY found (ALOMY [13]; I.a.35 25 g/ha a.s.): 65%
herbicidal activity against POLCO found (POLCO; I.a.35 25 g/ha a.s.): 65%
herbicidal activity against ECHCG found (ECHCG [4]; I.a.35 12.5 g/ha a.s.): 30%
herbicidal activity against SETVI found (SETVI; I.a.35 12.5 g/ha a.s.): 90%
herbicidal activity against CHEAL found (CHEAL; I.a.35 3.12 g/ha a.s.): 85%
herbicidal activity against CHEAL found (CHEAL; I.a.35 6.25 g/ha a.s.): 85%
herbicidal activity against BRAPL found (BRAPL [2]; I.a.35 25 g/ha a.s.): 50%
herbicidal activity against ERBVI found (ERBVI [3]; I.a.35 25 g/ha a.s.): 55%
herbicidal activity against AMARE found (AMARE; I.a.35 3.12 g/ha a.s.): 70%

O=C(O)CNCP(=O)(O)O [B.95, glyphosate, reference compound]
herbicidal activity against BRAPL found (BRAPL [8]; B.95 135 g/ha a.s.): 95%
herbicidal activity against ALOMY found (ALOMY [11]; B.95 135 g/ha a.s.): 80%
herbicidal activity against ECHCG found (ECHCG [12]; B.95 135 g/ha a.s.): 85%

CCC(CC)Nc1c([N+](=O)[O-])cc(C)c(C)c1[N+](=O)[O-] [B.101, pendimethalin, reference compound]
herbicidal activity against ALOMY found (ALOMY [13]; B.101 400 g/ha a.s.): 75%
herbicidal activity against POLCO found (POLCO; B.101 400 g/ha a.s.): 40%

CC(C)N(C)S(=O)(=O)NC(=O)c1cc(-n2c(=O)cc(C(F)(F)F)n(C)c2=O)c(F)cc1Cl [B.76, saflufenacil, reference compound]
herbicidal activity against AMBEL found (AMBEL [1]; B.76 6.25 g/ha a.s.): 75%
herbicidal activity against BIDPI found (BIDPI; B.76 6.25 g/ha a.s.): 60%
herbicidal activity against ELEIN found (ELEIN; B.76 6.25 g/ha a.s.): 30%
herbicidal activity against SORHA found (SORHA; B.76 6.25 g/ha a.s.): 0%
herbicidal activity against BRAPL found (BRAPL [8]; B.76 12.5 g/ha a.s.): 30%
herbicidal activity against SETFA found (SETFA [9]; B.76 12.5 g/ha a.s.): 30%
herbicidal activity against ERBVI found (ERBVI [10]; B.76 12.5 g/ha a.s.): 60%
herbicidal activity against SORPHA found (SORPHA; B.76 12.5 g/ha a.s.): 25%
herbicidal activity against CHEAL found (CHEAL; B.76 3.12 g/ha a.s.): 30%
herbicidal activity against AMARE found (AMARE; B.76 3.12 g/ha a.s.): 35%
